From patent publication US20160264593A1 (priority 2013, published 2016)
Values joined by “and” are separate entries in the source; they are usually repeats but may differ in a detail not shown here. Identical values can stand only once. “Also recorded” adds a separate entry of the source.

Experiment: Pharmacokinetic study of 100 (and metabolite endothal) in SD rats, iv; plasma, liver, brain
Settings: for Endothal brain concentration / Endothal liver concentration / Endothal plasma concentration / concentration at 0.25 h / concentration at 1 h / concentration at 2 h / concentration at 10 h / concentration at 24 h / concentration at 6 h: SD rats; for AUCINF / AUClast / Cmax / Tmax / concentration at 0.25 h / concentration at 1 h / concentration at 2 h / concentration at 10 h / concentration at 24 h / concentration at 6 h: rat, in vivo, iv; for concentration at 0.25 h / concentration at 1 h / concentration at 2 h / concentration at 10 h / concentration at 24 h / concentration at 6 h: Endothal liver concentration
Experimental: 100 was administrated via iv route at 0.5, 1.0 and 1.5 mg/kg into SD rats. The blood, liver and brain tissue samples were collected at predetermined times from rats.
Twelve (12) female SD rats per group were dosed by iv with 100. The rats were fasted overnight prior to dosing, with free access to water. Foods were withheld for 2 hours post-dose. Blood, liver and brain tissue samples in two animals each group were collected at each time point, within 10% of the scheduled time for each time point. Two extra animals were used for analytic method development. Blood (>0.3 mL) were collected via aorta abdominalis in anaesthetic animalsinto tubes containing heparin at 15 min, 1, 2, 6, 10 and 24 hours after iv administration. Liver and brain tissues were collected immediately after animal death. The liver and brain tissues were excised and rinsed with cold saline to avoid blood residual. Upon collection, each sample was placed on ice and the blood samples were subsequently centrifuged (4° C., 11000 rpm, 5 min) to separate plasma. The obtained plasma, liver and brain tissue samples were stored at −70° C. until LC-MS/MS analysis.
AUC0-∞ (AUC/NF) is the area under the plasma concentration-time curve with last concentration extrapolated based on the elimination rate constant.

[1] = 100 iv 0.5 mg/kg, 24 hr, individual

O=C(O)C1C2CCC(O2)C1C(=O)O (stereo not shown) [Endothal, 7-oxabicyclo[2.2.1]heptane-2,3-dicarboxylic acid]
Endothal brain concentration (100 iv 0.5 mg/kg, 0.25 hr, individual): BLQ
Endothal liver concentration (100 iv 0.5 mg/kg, 0.25 hr, individual, 0.5 mg/kg): 382 ng/g
Endothal brain concentration (100 iv 0.5 mg/kg, 0.25 hr, mean): BLQ
Endothal brain concentration (100 iv 0.5 mg/kg, 1 hr, individual): BLQ
Endothal liver concentration (100 iv 0.5 mg/kg, 1 hr, individual, 0.5 mg/kg): 131 ng/g
Endothal brain concentration (100 iv 0.5 mg/kg, 1 hr, mean): BLQ
Endothal brain concentration (100 iv 0.5 mg/kg, 2 hr, individual): BLQ
Endothal liver concentration (100 iv 0.5 mg/kg, 2 hr, individual, 0.5 mg/kg): 273 ng/g
Endothal brain concentration (100 iv 0.5 mg/kg, 2 hr, mean): BLQ
Endothal brain concentration (100 iv 0.5 mg/kg, 6 hr, individual): BLQ
Endothal plasma concentration (100 iv 0.5 mg/kg, 6 hr, individual, 0.5 mg/kg): BLQ
Endothal brain concentration (100 iv 0.5 mg/kg, 6 hr, mean): BLQ
Endothal brain concentration (100 iv 0.5 mg/kg, 10 hr, individual): BLQ
Endothal brain concentration (100 iv 0.5 mg/kg, 10 hr, mean): BLQ
Endothal brain concentration [1]: BLQ
Endothal plasma concentration [1]: BLQ
Endothal liver concentration (100 iv 0.5 mg/kg, 24 hr, individual, 0.5 mg/kg): 36.4 ng/g
Endothal brain concentration (100 iv 0.5 mg/kg, 24 hr, mean): BLQ
Endothal plasma concentration (100 iv 0.5 mg/kg, 24 hr, mean): BLQ
Endothal brain concentration (100 iv 1.0 mg/kg, 0.25 hr, individual): BLQ
Endothal liver concentration (100 iv 1.0 mg/kg, 0.25 hr, individual, 1 mg/kg): 1320 ng/g
Endothal brain concentration (100 iv 1.0 mg/kg, 0.25 hr, mean): BLQ
Endothal brain concentration (100 iv 1.0 mg/kg, 1 hr, individual): BLQ
Endothal liver concentration (100 iv 1.0 mg/kg, 1 hr, individual, 1 mg/kg): 1380 ng/g and 618 ng/g
Endothal brain concentration (100 iv 1.0 mg/kg, 1 hr, mean): BLQ
Endothal brain concentration (100 iv 1.0 mg/kg, 2 hr, individual): BLQ
Endothal liver concentration (100 iv 1.0 mg/kg, 2 hr, individual, 1 mg/kg): 1530 ng/g and 542 ng/g
Endothal brain concentration (100 iv 1.0 mg/kg, 2 hr, mean): BLQ
Endothal brain concentration (100 iv 1.0 mg/kg, 6 hr, individual): BLQ
Endothal liver concentration (100 iv 1.0 mg/kg, 6 hr, individual, 1 mg/kg): 241 ng/g
Endothal brain concentration (100 iv 1.0 mg/kg, 6 hr, mean): BLQ
Endothal brain concentration (100 iv 1.0 mg/kg, 10 hr, individual): BLQ
Endothal liver concentration (100 iv 1.0 mg/kg, 10 hr, individual, 1 mg/kg): 94.2 ng/g
Endothal brain concentration (100 iv 1.0 mg/kg, 10 hr, mean): BLQ
Endothal brain concentration (100 iv 1.0 mg/kg, 24 hr, individual): BLQ
Endothal liver concentration (100 iv 1.0 mg/kg, 24 hr, individual, 1 mg/kg): 115 ng/g
Endothal brain concentration (100 iv 1.0 mg/kg, 24 hr, mean): BLQ
Endothal brain concentration (100 iv 1.5 mg/kg, 0.25 hr, individual): BLQ
Endothal liver concentration (100 iv 1.5 mg/kg, 0.25 hr, individual, 1.5 mg/kg): 2160 ng/g
Endothal brain concentration (100 iv 1.5 mg/kg, 0.25 hr, mean): BLQ
Endothal brain concentration (100 iv 1.5 mg/kg, 1 hr, individual): BLQ
Endothal liver concentration (100 iv 1.5 mg/kg, 1 hr, individual, 1.5 mg/kg): 2976 ng/g
Endothal brain concentration (100 iv 1.5 mg/kg, 1 hr, mean): BLQ
Endothal brain concentration (100 iv 1.5 mg/kg, 2 hr, individual): BLQ
Endothal liver concentration (100 iv 1.5 mg/kg, 2 hr, individual, 1.5 mg/kg): 2226 ng/g
Endothal brain concentration (100 iv 1.5 mg/kg, 2 hr, mean): BLQ
Endothal brain concentration (100 iv 1.5 mg/kg, 6 hr, individual): BLQ
Endothal liver concentration (100 iv 1.5 mg/kg, 6 hr, individual, 1.5 mg/kg): 1326 ng/g
Endothal brain concentration (100 iv 1.5 mg/kg, 6 hr, mean): BLQ
Endothal brain concentration (100 iv 1.5 mg/kg, 10 hr, individual): BLQ
Endothal liver concentration (100 iv 1.5 mg/kg, 10 hr, individual, 1.5 mg/kg): 137 ng/g and 329 ng/g
Endothal brain concentration (100 iv 1.5 mg/kg, 10 hr, mean): BLQ
Endothal brain concentration (100 iv 1.5 mg/kg, 24 hr, individual): BLQ
Endothal liver concentration (100 iv 1.5 mg/kg, 24 hr, individual, 1.5 mg/kg): 52.1 ng/g
Endothal brain concentration (100 iv 1.5 mg/kg, 24 hr, mean): BLQ
endothal detectable in brain samples (after single iv 100 at 0.5, 1.0 and 1.5 mg/kg): not detectable; also recorded: undetectable
AUCINF (female, SD, 0.5 mg/kg): 828 ng·h/mL
AUClast (female, SD, 0.5 mg/kg): 546 ng·h/mL
Cmax (female, SD, 0.5 mg/kg): 577 ng/mL
Tmax (female, SD, 0.5 mg/kg): 15 min
concentration at 0.25 h (female, SD, 0.5 mg/kg, 100 iv 0.5 mg/kg, 0.25 hr, individual): 316 ng/g
concentration at 0.25 h (female, SD, 0.5 mg/kg, 100 iv 0.5 mg/kg, 0.25 hr, mean): 349 ng/g
concentration at 1 h (female, SD, 0.5 mg/kg, 100 iv 0.5 mg/kg, 1 hr, individual): 256 ng/g
concentration at 1 h (female, SD, 0.5 mg/kg, 100 iv 0.5 mg/kg, 1 hr, mean): 194 ng/g
concentration at 2 h (female, SD, 0.5 mg/kg, 100 iv 0.5 mg/kg, 2 hr, individual): 168 ng/g
concentration at 2 h (female, SD, 0.5 mg/kg, 100 iv 0.5 mg/kg, 2 hr, mean): 220 ng/g
concentration at 10 h (female, SD, 0.5 mg/kg, 100 iv 0.5 mg/kg, 10 hr, mean): 124 ng/g
concentration at 24 h (female, SD, 0.5 mg/kg, 100 iv 0.5 mg/kg, 24 hr, individual): 32 ng/g
concentration at 24 h (female, SD, 0.5 mg/kg, 100 iv 0.5 mg/kg, 24 hr, mean): 34.2 ng/g
AUCINF (female, SD, 1 mg/kg): 2750 ng·h/mL
AUClast (female, SD, 1 mg/kg): 2487 ng·h/mL
Tmax (female, SD, 1 mg/kg): 15 min
concentration at 0.25 h (female, SD, 1 mg/kg, 100 iv 1.0 mg/kg, 0.25 hr, individual): 768 ng/g
concentration at 0.25 h (female, SD, 1 mg/kg, 100 iv 1.0 mg/kg, 0.25 hr, mean): 1040 ng/g
concentration at 1 h (female, SD, 1 mg/kg, 100 iv 1.0 mg/kg, 1 hr, mean): 999 ng/g
concentration at 2 h (female, SD, 1 mg/kg, 100 iv 1.0 mg/kg, 2 hr, mean): 1040 ng/g
concentration at 6 h (female, SD, 1 mg/kg, 100 iv 1.0 mg/kg, 6 hr, individual): 298 ng/g
concentration at 6 h (female, SD, 1 mg/kg, 100 iv 1.0 mg/kg, 6 hr, mean): 270 ng/g
concentration at 10 h (female, SD, 1 mg/kg, 100 iv 1.0 mg/kg, 10 hr, individual): 151 ng/g
concentration at 10 h (female, SD, 1 mg/kg, 100 iv 1.0 mg/kg, 10 hr, mean): 123 ng/g
concentration at 24 h (female, SD, 1 mg/kg, 100 iv 1.0 mg/kg, 24 hr, individual): 66.6 ng/g
concentration at 24 h (female, SD, 1 mg/kg, 100 iv 1.0 mg/kg, 24 hr, mean): 90.8 ng/g
AUCINF (female, SD, 1.5 mg/kg): 4730 ng·h/mL
AUClast (female, SD, 1.5 mg/kg): 4476 ng·h/mL
Tmax (female, SD, 1.5 mg/kg): 15 min
concentration at 0.25 h (female, SD, 1.5 mg/kg, 100 iv 1.5 mg/kg, 0.25 hr, individual): 2300 ng/g
concentration at 0.25 h (female, SD, 1.5 mg/kg, 100 iv 1.5 mg/kg, 0.25 hr, mean): 2230 ng/g
concentration at 1 h (female, SD, 1.5 mg/kg, 100 iv 1.5 mg/kg, 1 hr, individual): 2870 ng/g
concentration at 1 h (female, SD, 1.5 mg/kg, 100 iv 1.5 mg/kg, 1 hr, mean): 2920 ng/g
concentration at 2 h (female, SD, 1.5 mg/kg, 100 iv 1.5 mg/kg, 2 hr, individual): 2950 ng/g
concentration at 2 h (female, SD, 1.5 mg/kg, 100 iv 1.5 mg/kg, 2 hr, mean): 2590 ng/g
concentration at 6 h (female, SD, 1.5 mg/kg, 100 iv 1.5 mg/kg, 6 hr, individual): 1690 ng/g
concentration at 6 h (female, SD, 1.5 mg/kg, 100 iv 1.5 mg/kg, 6 hr, mean): 1510 ng/g
concentration at 10 h (female, SD, 1.5 mg/kg, 100 iv 1.5 mg/kg, 10 hr, mean): 233 ng/g
concentration at 24 h (female, SD, 1.5 mg/kg, 100 iv 1.5 mg/kg, 24 hr, individual): 75 ng/g
concentration at 24 h (female, SD, 1.5 mg/kg, 100 iv 1.5 mg/kg, 24 hr, mean): 63.5 ng/g
Cmax (female, Sprague-Dawley, 1.5 mg/kg): 349 to 2960 ng/g
AUCINF (0.5 mg/kg): 3095 ng·h/g
AUClast (0.5 mg/kg): 2598 ng·h/g
AUCINF (1 mg/kg): 7370 ng·h/g
AUClast (1 mg/kg): 6673 ng·h/g
AUCINF (1.5 mg/kg): 18850 ng·h/g
AUClast (1.5 mg/kg): 18434 ng·h/g
